We go through 20 compounds from US20090012103A1, “SUBSTITUTED HETEROCYCLIC COMPOUNDS” (priority 2007, published 2009).

For data set [1], the target named is T1, wild-type human cardiac sodium channel, hNav1.5 (Homo sapiens, UniProt Q14524). Description: Peak INa screening assay (tonic block TB and use-dependent block UDB of peak sodium current). To be noted: compound at 10 μM. Format: cell-based. Here is the method:
The late sodium current (Late INa) and peak sodium current (Peak INa) assays are performed on an automated electrophysiology platform, PatchXpress 7000A (MDS Analytical Technologies, Sunnyvale, Calif.), which uses the whole cell patch clamp technique to measure currents through the cell membrane of up to 16 cells at a time. The assay uses an HEK293 (human embryonic kidney) cell line heterologously expressing the wild-type human cardiac sodium channel, hNav1.5, purchased from Millipore (Billerica, Mass.). No beta subunits were coexpressed with the Na channel alpha subunit. […] Experiments are carried out at 24-27° C.
For both the Late INa and Peak INa assays, series resistance compensation is set to 50% and whole-cell compensation is performed automatically. […] Currents through open sodium channels are automatically recorded and stored in the DataXpress2 database (MDS Analytical Technologies, Sunnyvale, Calif.). Analysis is performed using DataXpress2 analysis software and data are compiled in Excel.
Compound stocks are routinely made in glass vials to 10 mM in dimethyl sulfoxide (DMSO). In some cases, when compounds are not soluble in DMSO, they are made in 100% ethanol. Stocks are sonicated as necessary. The extracellular solution for screening Late INa is composed of: 140 mM NaCl, 4 mM KCl, 1.8 mM CaCl2, 0.75 mM MgCl2, and 5 mM HEPES with pH adjusted to 7.4 using NaOH. The extracellular solution for screening Peak INa is composed of: 20 mM NaCl, 120 mM N-methyl-D glucamine, 4 mM KCl, 1.8 mM CaCl2, 0.75 mM MgCl2, and 5 mM HEPES with pH adjusted to 7.4 using HCl. The intracellular solution used to perfuse the inside of the cells for both the Late INa and Peak INa assays contains: 120 mM CsF, 20 mM CsCl, 5 mM EGTA, 5 mM HEPES and pH adjusted to 7.4 with CsOH. Compounds are diluted in extracellular solution to 10 μM in glass vials and then transferred to glass well plates before robotic addition to the cells. The 0 Na extracellular solution used at the end of each experiment for the Late INa and Peak INa assays to measure baseline current contains: 140 mM N-methyl-D-glucamine; 4 mM KCl; 1.8 mM CaCl2; 0.75 mM MgCl2; 5 mM HEPES and pH was adjusted to 7.4 with HCl.
Compounds were also evaluated for their effect in several other assays, including their effect on Peak INa. In some cases, the effect on Peak INa was measured using data from the Late INa assay. […] Since the peak INa can be very large, introducing artifacts in the recording, the concentration of Na^+ in the bath is reduced to 20 mM and a nonpermeant cation is added to compensate for the Na^+ that was omitted from the standard extracellular solution (see above). The peak INa assay uses a holding potential of −100 mV and a 20 ms test pulse to 0 mV to activate the channel. As in the Late INa assay, stepping the voltage to 0 mV causes a rapid increase in negative Na current through hNav1.5 that inactivates within a few ms. No late INa activator is added for the peak assay.
For the separate peak INa assay, both tonic (TB) block and use-dependent (UDB) block of peak inward sodium current by 10 μM compound are determined. TB is block of the channel in the resting state, before the channel opens. TB is simulated in this assay by stimulating the channel to open at a low frequency (0.1 Hz). This is done in order to measure the control current amplitude and monitor current rundown, enabling correction for rundown in the calculation of percent block for TB.

Another data set addresses hERG potassium channel (Homo sapiens, UniProt Q12809). Nature of the data set: hERG screening assay (PatchXpress patch clamp, CHO cell line).
Data set [2] deals with T1, wild-type human cardiac sodium channel, hNav1.5. Nature of the data set: Late INa screening assay (late sodium current, PatchXpress whole cell patch clamp). Format: cell-based. To be noted: compound at 10 μM; read-out: Late INa % blk.
[3] abbreviates: tonic block, read-out: Tonic Peak INa % blk.
[4] abbreviates: use-dependent block, read-out: UDB Peak INa % blk.

T1 sequence (Q14524 whole entry): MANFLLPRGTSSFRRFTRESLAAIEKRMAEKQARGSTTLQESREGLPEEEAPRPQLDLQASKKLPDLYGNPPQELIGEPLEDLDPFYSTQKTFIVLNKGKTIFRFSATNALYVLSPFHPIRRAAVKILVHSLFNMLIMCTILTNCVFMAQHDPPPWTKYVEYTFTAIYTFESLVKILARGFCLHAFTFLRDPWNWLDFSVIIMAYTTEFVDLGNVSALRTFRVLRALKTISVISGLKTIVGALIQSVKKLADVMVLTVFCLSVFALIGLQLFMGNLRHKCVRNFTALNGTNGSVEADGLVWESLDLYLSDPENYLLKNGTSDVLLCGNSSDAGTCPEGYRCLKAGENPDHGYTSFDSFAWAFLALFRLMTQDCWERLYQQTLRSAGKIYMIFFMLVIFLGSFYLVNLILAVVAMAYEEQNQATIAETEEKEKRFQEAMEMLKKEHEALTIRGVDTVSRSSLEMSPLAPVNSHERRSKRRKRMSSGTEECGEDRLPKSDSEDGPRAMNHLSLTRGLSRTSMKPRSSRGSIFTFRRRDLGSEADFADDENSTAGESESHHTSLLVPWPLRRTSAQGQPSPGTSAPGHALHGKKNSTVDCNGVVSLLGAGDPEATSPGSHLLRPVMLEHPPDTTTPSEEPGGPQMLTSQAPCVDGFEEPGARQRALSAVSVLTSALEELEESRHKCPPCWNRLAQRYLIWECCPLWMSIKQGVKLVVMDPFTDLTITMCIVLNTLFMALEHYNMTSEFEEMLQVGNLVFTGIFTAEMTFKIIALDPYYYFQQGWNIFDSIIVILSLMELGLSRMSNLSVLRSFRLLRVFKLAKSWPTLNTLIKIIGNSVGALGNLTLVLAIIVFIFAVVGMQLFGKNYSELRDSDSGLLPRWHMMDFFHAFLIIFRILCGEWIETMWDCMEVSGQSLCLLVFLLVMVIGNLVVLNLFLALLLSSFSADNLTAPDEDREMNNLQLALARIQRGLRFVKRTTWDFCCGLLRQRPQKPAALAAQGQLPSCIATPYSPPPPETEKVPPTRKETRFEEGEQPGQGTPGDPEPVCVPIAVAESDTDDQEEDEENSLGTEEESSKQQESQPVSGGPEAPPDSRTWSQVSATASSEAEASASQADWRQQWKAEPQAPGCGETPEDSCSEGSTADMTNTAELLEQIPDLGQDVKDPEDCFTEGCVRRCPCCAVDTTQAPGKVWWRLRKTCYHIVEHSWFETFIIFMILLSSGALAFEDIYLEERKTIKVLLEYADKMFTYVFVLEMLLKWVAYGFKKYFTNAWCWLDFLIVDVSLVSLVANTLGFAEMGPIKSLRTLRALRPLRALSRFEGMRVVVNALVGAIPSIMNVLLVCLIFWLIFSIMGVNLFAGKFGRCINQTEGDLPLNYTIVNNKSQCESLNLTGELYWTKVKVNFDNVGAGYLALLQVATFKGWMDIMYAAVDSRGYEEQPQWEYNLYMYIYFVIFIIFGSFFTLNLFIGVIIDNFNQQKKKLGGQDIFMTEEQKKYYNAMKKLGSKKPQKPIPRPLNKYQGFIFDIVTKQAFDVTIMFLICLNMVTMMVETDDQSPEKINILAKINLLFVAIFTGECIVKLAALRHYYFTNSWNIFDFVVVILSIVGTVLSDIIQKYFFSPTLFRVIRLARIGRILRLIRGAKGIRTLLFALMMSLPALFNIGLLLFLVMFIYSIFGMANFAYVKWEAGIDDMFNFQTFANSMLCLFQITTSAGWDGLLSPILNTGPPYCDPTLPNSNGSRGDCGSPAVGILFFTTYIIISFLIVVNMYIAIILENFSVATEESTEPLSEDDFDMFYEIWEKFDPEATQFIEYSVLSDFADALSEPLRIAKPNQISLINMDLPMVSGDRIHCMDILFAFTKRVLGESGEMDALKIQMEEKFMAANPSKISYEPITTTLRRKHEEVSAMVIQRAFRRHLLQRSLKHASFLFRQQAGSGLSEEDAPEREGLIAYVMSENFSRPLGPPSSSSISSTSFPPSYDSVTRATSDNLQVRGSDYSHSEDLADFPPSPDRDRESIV
Chain of hERG potassium channel (Q12809 whole entry): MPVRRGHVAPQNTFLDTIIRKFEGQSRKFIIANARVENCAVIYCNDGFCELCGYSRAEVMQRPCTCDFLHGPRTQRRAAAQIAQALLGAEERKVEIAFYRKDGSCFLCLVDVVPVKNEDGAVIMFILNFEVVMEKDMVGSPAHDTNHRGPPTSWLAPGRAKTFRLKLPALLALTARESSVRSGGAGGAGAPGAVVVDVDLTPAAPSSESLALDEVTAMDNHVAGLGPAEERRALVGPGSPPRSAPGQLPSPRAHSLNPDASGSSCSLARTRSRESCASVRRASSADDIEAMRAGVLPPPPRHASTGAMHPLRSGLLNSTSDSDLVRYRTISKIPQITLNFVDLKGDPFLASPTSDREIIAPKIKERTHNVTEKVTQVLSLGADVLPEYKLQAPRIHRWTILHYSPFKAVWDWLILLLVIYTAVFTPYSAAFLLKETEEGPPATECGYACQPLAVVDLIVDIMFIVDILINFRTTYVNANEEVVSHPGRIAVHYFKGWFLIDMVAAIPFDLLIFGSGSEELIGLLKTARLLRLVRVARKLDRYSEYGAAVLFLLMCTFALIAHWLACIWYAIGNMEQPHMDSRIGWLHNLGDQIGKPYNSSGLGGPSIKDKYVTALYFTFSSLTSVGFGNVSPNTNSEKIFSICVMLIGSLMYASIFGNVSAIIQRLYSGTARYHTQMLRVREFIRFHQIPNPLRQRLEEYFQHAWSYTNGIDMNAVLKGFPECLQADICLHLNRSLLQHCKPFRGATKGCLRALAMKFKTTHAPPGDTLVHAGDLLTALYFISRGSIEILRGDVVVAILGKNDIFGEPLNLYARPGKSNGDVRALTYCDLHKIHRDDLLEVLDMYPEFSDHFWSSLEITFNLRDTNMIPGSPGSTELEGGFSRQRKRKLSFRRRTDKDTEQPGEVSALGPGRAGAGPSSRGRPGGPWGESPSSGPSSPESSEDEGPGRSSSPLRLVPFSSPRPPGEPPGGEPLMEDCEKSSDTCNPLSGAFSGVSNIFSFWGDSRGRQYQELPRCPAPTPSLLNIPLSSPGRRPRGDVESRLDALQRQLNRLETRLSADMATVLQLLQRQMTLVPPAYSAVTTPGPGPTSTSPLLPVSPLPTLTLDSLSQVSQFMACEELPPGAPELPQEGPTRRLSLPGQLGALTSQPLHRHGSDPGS
Description for hERG potassium channel: Compounds were screened to test their activity in blocking the hERG potassium channel. The hERG channel is heterologously expressed in a CHO (Chinese Hamster Ovary) cell line. Cells are maintained with standard tissue culture procedures and stable channel expression is maintained with 500 μg/ml G418 in the culture medium. Cells are harvested for testing on the PatchXpress automated patch clamp with Accumax (Innovative Cell Technologies, San Diego, Calif.) to isolate single cells.
The following solutions are used for electrophysiological recordings. The external solution contains: 2 mM CaCl2; 2 mM MgCl2; 4 mM KCl; 150 mM NaCl; 10 mM Glucose; 10 mM HEPES (pH 7.4 with 1M NaOH, osmolarity).
hERG channels are activated when the voltage is stepped to +20 mV from the −80 mV holding potential (see FIG. 3). During a 5 second step at +20 mV, the channels activate and then largely inactivate, so the currents are relatively small. Upon returning to −50 mV from +20 mV, hERG currents transiently become much larger as inactivation is rapidly removed and then the channel closes. The first step to −50 mV for 300 ms is used as a baseline for measuring the peak amplitude during the step to −50 mV after channel activation. The peak current at −50 mV is measured both under control conditions and after addition of compound.
All compounds are prepared as 10 mM DMSO stocks in glass vials. Stock solutions are mixed by vigorous vortexing and sonication for about 2 minutes at room temperature. For testing, compounds are diluted in glass vials using an intermediate dilution step in pure DMSO and then further diluted to working concentrations in external solution. Dilutions are prepared no longer than 20 minutes before use.
After achieving the whole-cell configuration, cells are monitored for 90 seconds to assess stability and washed with external solution for 66 seconds. The voltage protocol described above is then applied to the cells every 12 seconds and throughout the whole procedure. Only cells with stable recording parameters and meeting specified health criteria are allowed to enter the compound addition procedure.
External solution containing 0.1% DMSO (vehicle) is applied to the cells first to establish the control peak current amplitude. After allowing the current to stabilize for 3 to 5 minutes, 1 μM and then 10 μM test compounds are applied. Each compound concentration is added 4 times and cells are kept in test solution until the effect of the compound reaches steady state or for a maximum of 12 minutes. […] Washout in the external solution compartment is performed until the recovery of the current reaches steady state. Data are analyzed using DataXpress, Clampfit (Molecular Devices, Inc., Sunnyvale) and Origin 7 (Originlab Corp.)

As for `CCOC(=O)C1=C(C)NC(C)=C(C(=O)OCC)C1c1ccc2c(c1)OCCO2` [PT-109, diethyl 4-(2,3-dihydrobenzo[b][1,4]dioxin-6-yl)-2,6-dimethyl-1,4-dihydropyridine-3,5-dicarboxylate], the inhibition at 10 µM in data set [1] (setting [3]) was determined as 18.1%. The “hERG Patch Clamp hERG % blk” value at hERG potassium channel (1 μM) was found to be 16.0%; on hERG potassium channel (10 μM), 34.2%.
As to `CC1=C(C(=O)OCc2ccccc2)C(c2occc2-c2ccccc2)n2nnnc2N1` (stereo not shown) [PT-351, benzyl 5-methyl-7-(3-phenylfuran-2-yl)-4,7-dihydrotetrazolo[1,5-a]pyrimidine-6-carboxylate], the inhibition at 10 µM was found to be 81.6% in data set [2] and 49.9% in data set [1] (setting [3]).
With `CC1=C(C(=O)OCc2ccccc2)C(c2sccc2-c2ccccc2)n2nnnc2N1` (stereo not shown) [PT-352, benzyl 5-methyl-7-(3-phenylthiophen-2-yl)-4,7-dihydrotetrazolo[1,5-a]pyrimidine-6-carboxylate], the values for the inhibition at 10 µM in data set [2] and in data set [1] (setting [3]) were 76.3% and 17.7%, respectively.
As for `CCOC(=O)[C@@H]1CCCN(c2cc(OC)ccc2C2C(C(=O)OCc3ccccc3)=C(C)Nc3nnnn32)C1` (stereo partly drawn) [PT-373, benzyl 7-(2-((R)-3-(ethoxycarbonyl)piperidin-1-yl)-4-methoxyphenyl)-5-methyl-4,7-dihydrotetrazolo[1,5-a]pyrimidine-6-carboxylate], the inhibition at 10 µM in data set [2] was determined as 64.9%; in data set [1] (setting [3]), 22.5%.
For `CC1=C(C(=O)OCc2ccccc2)C(c2ccccc2OCCN(C)C)n2nnnc2N1` (stereo not shown) [PT-374, benzyl 7-(2-(2-(dimethylamino)ethoxy)phenyl)-5-methyl-4,7-dihydrotetrazolo[1,5-a]pyrimidine-6-carboxylate], in that order: 66.3% and 38.7%.
As for `COc1ccc(-c2sc3ccccc3c2C2C(C(=O)OCc3ccccc3)=C(C)Nc3nnnn32)cc1` (stereo not shown) [PT-379, benzyl 7-(2-(4-methoxyphenyl)benzo[b]thiophen-3-yl)-5-methyl-4,7-dihydrotetrazolo[1,5-a]pyrimidine-6-carboxylate], the inhibition at 10 µM in data set [2] amounted to 55%; in data set [1] (setting [3]) it was 11.1%; in data set [1] (setting [4]) it was 9.8%.
For `COc1cc([N+](=O)[O-])ccc1C1C(C(=O)OCc2ccccc2)=C(C)Nc2ccnn21` (stereo not shown) [PT-394, benzyl 7-(2-methoxy-4-nitrophenyl)-5-methyl-4,7-dihydropyrazolo[1,5-a]pyrimidine-6-carboxylate] the same measures were 45.2%, 15.4% and 8%.
For `CC1=C(C(=O)OCc2ccccc2)C(c2sccc2Br)n2nnnc2N1` (stereo not shown) [PT-401, benzyl 7-(3-bromothiophen-2-yl)-5-methyl-4,7-dihydrotetrazolo[1,5-a]pyrimidine-6-carboxylate], the inhibition at 10 µM in data set [2] came to 77.3%; in data set [1] (setting [3]), 25.9%.
For `CC1=C(C(=O)OCc2ccccc2)C(c2cc(C)c(C)s2)n2nnnc2N1` (stereo not shown) [PT-414, benzyl 7-(4,5-dimethylthiophen-2-yl)-5-methyl-4,7-dihydrotetrazolo[1,5-a]pyrimidine-6-carboxylate], in that order: 78% and 21.6%.
`CC1=C(C(=O)OC(c2ccc(F)cc2)c2ccc(F)cc2)C(c2cccs2)n2nnnc2N1` (stereo not shown) [PT-423, bis(4-fluorophenyl)methyl 5-methyl-7-(thiophen-2-yl)-4,7-dihydrotetrazolo[1,5-a]pyrimidine-6-carboxylate]: the inhibition at 10 µM in data set [2] came to 67.2%; in data set [1] (setting [3]) it was 18.5%; in data set [1] (setting [4]) it was 20.4%.
For `CC1=C(C(=O)OCC2CC2)C(c2c(Br)sc3ccccc23)n2nnnc2N1` (stereo not shown) [PT-426, cyclopropylmethyl 7-(2-bromobenzo[b]thiophen-3-yl)-5-methyl-4,7-dihydrotetrazolo[1,5-a]pyrimidine-6-carboxylate], in that order: 81%, 60.1% and 50.7%.
For `CCOC(=O)C1=C(C)NC(C)=C(C(=O)OCC)C1c1ccccc1-c1ccc(NS(C)(=O)=O)cc1` [PT-428, diethyl 2,6-dimethyl-4-(4′-(methylsulfonamido)biphenyl-2-yl)-1,4-dihydropyridine-3,5-dicarboxylate], the inhibition at 10 µM in data set [2] stood at 45.1%; in data set [1] (setting [3]), 5.3%; in data set [1] (setting [4]), 1%.
For `CCOC(=O)C1=C(C)Nc2nnnn2C1c1c(Br)sc2ccccc12` (stereo not shown) [PT-489, ethyl 7-(2-bromobenzo[b]thiophen-3-yl)-5-methyl-4,7-dihydrotetrazolo[1,5-a]pyrimidine-6-carboxylate] the same measures were 80.7%, 46.2% and 29.2%.
Consider `CCOC(=O)C1=C(C)Nc2nnnn2C1c1ccccc1I` (stereo not shown) [PT-492, ethyl 7-(2-iodophenyl)-5-methyl-4,7-dihydrotetrazolo[1,5-a]pyrimidine-6-carboxylate], for which the inhibition at 10 µM in data set [2] is 39.3%; in data set [1] (setting [3]), 0.3%.
In the case of `CCOC(=O)C1=C(C)Nc2nnnn2C1c1cccc(Oc2cccc(C(=O)OCC)c2)c1` (stereo not shown) [PT-494, ethyl 7-(3-(3-(ethoxycarbonyl)phenoxy)phenyl)-5-methyl-4,7-dihydrotetrazolo[1,5-a]pyrimidine-6-carboxylate], the inhibition at 10 µM worked out at 71.8% in data set [2], 6.7% in data set [1] (setting [3]) and 2% in data set [1] (setting [4]).
For `CCOC(=O)C1=C(C)Nc2nnnn2C1c1cccc(OCc2cccc(C(=O)OC)c2)c1` (stereo not shown) [PT-495, ethyl 7-(3-(3-(methoxycarbonyl)benzyloxy)phenyl)-5-methyl-4,7-dihydrotetrazolo[1,5-a]pyrimidine-6-carboxylate], in that order: 54.2%, 20.7% and 11.6%.
For `CCOC(=O)C1=C(C)Nc2nnnn2C1c1sccc1-c1cccc(F)c1` (stereo not shown) [PT-496, ethyl 7-(3-(3-fluorophenyl)thiophen-2-yl)-5-methyl-4,7-dihydrotetrazolo[1,5-a]pyrimidine-6-carboxylate] the same measures were 84.2%, 36.8% and 9.1%.
In the case of `CCOC(=O)C1=C(C)Nc2nnnn2C1c1cccc(OCc2ccc(C(=O)OCC)cc2)c1` (stereo not shown) [PT-497, ethyl 7-(3-(4-(ethoxycarbonyl)benzyloxy)phenyl)-5-methyl-4,7-dihydrotetrazolo[1,5-a]pyrimidine-6-carboxylate], the inhibition at 10 µM was 59% in data set [2], 22.2% in data set [1] (setting [3]) and 15.4% in data set [1] (setting [4]).
As to `CC1=C(C(=O)OC(C)C)C(c2c(Br)sc3ccccc23)n2nnnc2N1` (stereo not shown) [PT-506, isopropyl 7-(2-bromobenzo[b]thiophen-3-yl)-5-methyl-4,7-dihydrotetrazolo[1,5-a]pyrimidine-6-carboxylate], the inhibition at 10 µM in data set [2] was found to be 81.4%; in data set [1] (setting [3]), 48.8%; in data set [1] (setting [4]), 23%.
Turning to `COC(=O)C1=C(C)Nc2nnnn2C1c1c(Br)sc2ccccc12` (stereo not shown) [PT-518, methyl 7-(2-bromobenzo[b]thiophen-3-yl)-5-methyl-4,7-dihydrotetrazolo[1,5-a]pyrimidine-6-carboxylate], the inhibition at 10 µM in data set [2] is 71.2%; in data set [1] (setting [3]), 24%.
